Measurements from PubChem BioAssay (NCI).
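Where inhibition never reached the appropriate level, the endpoint shown equals the highest concentration tested. Otherwise, values were interpolated linearly from a five-concentration, 48-hour dose response in 96-well plates. GI50 = concentration required for 50% inhibition of growth. TGI: total growth inhibition.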

Experiments:
Assay in all cases: inhibition of tumour cell growth, NCI panel, 48 h
[1] = system: RXF 393 renal
[2] = system: HT29 colon
[3] = system: K-562 leukemia
[4] = system: NCI-H23 lung
[5] = system: OVCAR-4 ovarian
[6] = system: DU-145 prostate
[7] = system: UACC-62 melanoma
[8] = system: OVCAR-5 ovarian
[9] = system: A549 NSCLC
[10] = system: U251 CNS

Compound	GI50 [1]	TGI [1]	GI50 [2]	TGI [2]	GI50 [3]	TGI [3]	GI50 [4]	TGI [4]	GI50 [5]	TGI [5]	GI50 [6]	TGI [6]	GI50 [7]	TGI [7]	GI50 [8]	TGI [8]	GI50 [9]	TGI [9]	GI50 [10]	TGI [10]
COC1C(O)CC(OC2CC(OC3CC(O[C@@H]4C(=O)c5c(cc6cc(OC7CC(OC8CC(O)C(O)C(C)O8)C(O)C(C)O7)c(C)c(O)c6c5O)CC4[C@H](OC)C(=O)O)OC(C)C3O)OC(C)C2O)OC1C (some centres undefined)	1.1 µM	4.22 µM	2.55 µM	17.9 µM	1.96 µM	> 33.3 µM	1.63 µM	17.2 µM	4.9 µM	> 33.3 µM	1.96 µM	> 33.3 µM	0.842 µM	2.54 µM	4.04 µM	> 33.3 µM	1.66 µM	> 33.3 µM	1.53 µM	> 33.3 µM
CC(=O)/C(=C/c1ccccc1)C(=O)CC(C)C	16.4 µM	30.5 µM	3.8 µM	12.8 µM	3.77 µM	> 100 µM	18.4 µM	43.1 µM	17.6 µM	41.4 µM	14.4 µM	28 µM	6.54 µM	20.9 µM	17.7 µM	41.6 µM	26.5 µM	73.8 µM	4.86 µM	17.7 µM
CC(C)N1CCN(c2ccncc2S(=O)(=O)N2CCCCC2)CC1		> 100 µM		> 100 µM		> 100 µM		> 100 µM		> 100 µM		> 100 µM		> 100 µM		> 100 µM		> 100 µM		> 100 µM
CO[C@H]1C=CO[C@@]2(C)Oc3c(C)c(O)c4c(O)c(c(CN5CCN(C)CC5)c(O)c4c3C2=O)NC(=O)/C(C)=C\C=C[C@H](C)[C@H](O)C(C)[C@@H](O)C(C)[C@H](OC(C)=O)[C@@H]1C (some centres undefined)		> 100 µM		> 100 µM		> 100 µM		> 77.6 µM		> 100 µM		> 100 µM		> 100 µM		> 100 µM		> 100 µM		> 100 µM
CCCCCCCCCCCCCCCCCc1nccn1CCOCCO	5.04 mg/L	10.1 mg/L	4.59 mg/L	10.1 mg/L	4.87 mg/L	12.1 mg/L	4.73 mg/L	9.73 mg/L	4.46 mg/L	9.62 mg/L	5.34 mg/L	10.4 mg/L	4.99 mg/L	9.87 mg/L	5.86 mg/L	11.2 mg/L	4.88 mg/L	10.2 mg/L	4.52 mg/L	9.62 mg/L
O=C1/C(=C/c2ccccc2)CN(C(=O)C(Cl)Cl)C/C1=C\c1ccccc1	0.914 µM	2.33 µM	0.295 µM	1.06 µM	0.134 µM		0.822 µM	2.73 µM	1.12 µM	2.44 µM	1.21 µM	2.47 µM	0.702 µM	2 µM	1.06 µM	2.85 µM	1.7 µM	3.92 µM	0.325 µM	1.24 µM
O=c1[nH]c2ccccc2c2nc3ccccc3n12		> 100 µM		> 100 µM		> 100 µM		> 100 µM		14 µM		> 100 µM		> 100 µM		> 100 µM		> 100 µM		> 100 µM
Cn1c(=O)c(Oc2ccc(F)cc2F)cc2cnc(NC(C)(C)CO)nc21	> 25 µM	> 25 µM	> 25 µM	> 25 µM	> 25 µM	> 25 µM	> 25 µM	> 25 µM	> 25 µM	> 25 µM	> 25 µM	> 25 µM	> 25 µM	> 25 µM	> 25 µM	> 25 µM	> 25 µM	> 25 µM	> 25 µM	> 25 µM
C=C(CN1CCN(c2ccc(C(F)(F)F)cc2)CC1)c1ccc(C(=O)Nc2ccccc2N)cc1	1.97 µM	6 µM	> 75.7 µM	> 100 µM	0.302 µM	> 36.5 µM	9.49 µM	> 100 µM	5.68 µM	> 100 µM	21 µM	> 100 µM	23 µM	> 100 µM	> 100 µM	> 100 µM	6.43 µM	45.5 µM	6.25 µM	31 µM
